Results on 30 compounds are retold here after PubChem BioAssay AID179 (DTP/NCI, 2004).

pEC50, pIC50: −log10 of the molar value. Values joined by “and” are separate entries in the source; they are usually repeats but may differ in a detail not shown here. Equal values may be shown once. Active and inactive are the calls of the source.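 The calls were made as follows: active = compounds giving half or more protection of infected cells from virus-caused growth loss, again on retest; inactive = the rest.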

The experiment deals with CEM cells HIV-1 protection, formazan growth assay. The experiment in a line: NCI AIDS Antiviral Assay. To be noted: for pIC50: measured here: growth of uninfected CEM cells. The gist of the method:
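Protection of CEM cells against HIV-1 was scored from cell growth (soluble formazan) across five concentrations, with parallel uninfected cells. Lack of protection may reflect toxicity.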

One may read the pEC50 as the EC50 on a negative log10 scale, so that one unit is a factor of ten. A word on the pIC50: it is the IC50 on a negative log10 scale, so that one unit is a factor of ten. Read a low pIC50 as a large IC50. Take `c1cnc2nc3c4ccccc4c4ccccc4c3nc2c1`: the pEC50 was < 4.45 and the pIC50 is < 4.45.

As for `S=c1cn[nH]c2c(Cl)cccc12`, the pEC50 was < 3.97 and the pIC50 was 4.09.

`CC(=O)c1ccc(NC(=S)NN)cc1`: the pEC50 was < 3.76, the outcome was inactive and the pIC50 is 3.83.

Regarding `CC1(C)C(=O)C2(N)CCC1C2` (centres undefined), the pEC50 was < 3.70 and the pIC50 is < 3.70.

On to `NCCN.O=C([O-])[O-].O=C([O-])[O-].[Co+3].[K+]`, for which the pEC50 is < 3.19; the pIC50 is 3.53 and 3.47.

Regarding `CCOC(=O)Cc1nn2c(=O)cc(C)nc2s1`, the pEC50 is < 3.70 and the pIC50 is < 3.70.

As for `CCCN(CCC)C(=O)COc1cc2c(O)c3c(O)c(C)c4c(c13)C(=O)C(C)(O/C=C/C(OC)C(C)C(OC(C)=O)C(C)C(O)C(C)C(O)C(C)/C=C/C=C(\C)C(=O)N2)O4` (centres undefined), the outcome was inactive.

On to `O=c1[nH]n(CCc2ccncc2)c(=O)c2ccccc12`, for which the pEC50 was < 3.70 and the pIC50 was < 3.70.

Regarding `CC(=O)c1ccc(Br)cc1NC1=CC(=O)c2ncccc2C1=O`, the pEC50 is < 3.70 and the pIC50 is 5.33.

For `O=P(O)(CN(C1CCCCC1)C1CCCCC1)CN(C1CCCCC1)C1CCCCC1`, the pEC50 was 3.75 and the pIC50 is < 3.70.

As for `CCSCCCCCCCCCCC(=O)OCC1OC(n2cc(C)c(=O)[nH]c2=O)CC1F` (centres undefined), the pEC50 is 7.88 and the pIC50 was 6.70.

For the compound `NC(=O)C(=CNC(=S)Nc1ccc(S(=O)(=O)Nc2ccccn2)cc1)C(N)=O`, the pEC50 was < 3.70 and the pIC50 was < 3.70.

`Cc1ccc2c(c1)CC1(Cc3cccc(C)c3C1=O)C2=O` (centres undefined): the pEC50 was < 3.70 and the pIC50 is < 3.70.

Take `O=C(Cn1c2ccc(Br)cc2c2nc3ccccc3nc21)NNC(=O)NC1CCCCC1`: the pEC50 is < 3.70 and the pIC50 is 3.74.

Consider `Cc1nc2ccccc2c(=O)n1NC(=S)Nc1ccc(Cl)cc1`, for which the pEC50 was < 4.40 and the pIC50 was < 4.40.

Regarding `O=C(NNS(=O)(=O)c1ccccc1)c1csc(NC(=S)NC2CCCCC2)n1`, the pEC50 was < 4.14 and the pIC50 is 4.54.

With `CCOC(=O)C1SC(=Nc2ccccc2)N=C1C` (centres undefined), the result was inactive.

As to `COC(=O)C1=C2CCC(=O)[C@@]2(C)C(OC(C)=O)C=CC1` (some centres undefined), the outcome was inactive.

Take `CCOC(=O)/C(C#N)=C/c1cc2c3c(c1)CCCN3CCC2`: the pEC50 was < 4.00 and the pIC50 was < 4.00.

In the case of `O=c1c2cccnc2nc2ccc3c[nH][nH]c3c12`, the pEC50 was < 3.70 and the pIC50 was 4.06.

Turning to `C[N+](C)(C)CC(=O)N/N=C(\C(=O)NC1=C(Cl)C(=O)c2ccccc2C1=O)C(C#N)c1csc(-c2ccc([N+](=O)[O-])cc2)n1` (centres undefined), the outcome was inactive.

As for `CCCCCC=C(c1cc(F)c(OC)c(C(=O)OC)c1)c1cc(F)c(OC)c(C(=O)OC)c1`, the pEC50 was < 3.70 and the pIC50 was 3.94.

Turning to `CC(CC12C=CC3(OO1)C(C)(C)CCCC3(C)O2)OC(=O)c1ccccc1` (centres undefined), the pEC50 is < 3.70; the pIC50 is 5.15 and 4.95.

With `N=C1/C(=C/c2ccco2)C(=O)N=C2SC=NN12`, the pEC50 was < 3.70 and the pIC50 was < 3.70.

`O=[N+]([O-])c1cnc(/C=[N+](\[O-])CCO)n1CCO`: the outcome was inactive.

In the case of `CCC(=O)NC1=CC(=O)C(=O)c2cccnc21`, the result was inactive.

In the case of `CSC1(C(=O)O)C2CCC3C2CCC31` (centres undefined), the result was inactive.

For `COC(=O)C(N)CSCc1ccccc1` (centres undefined), the pEC50 is < 3.16 and the pIC50 was 3.23.

Turning to `O=C(OCc1ccccc1)/C(c1ccccc1)=[N+]1/C(=S)Nc2ccc([N+](=O)[O-])cc21`, the pEC50 is < 3.70 and the pIC50 was 3.98.

Turning to `COC(=O)N/N=C(\c1ccccc1)c1ccc(OC)cc1`, the pEC50 was < 3.70 and the pIC50 is 3.95.
